In ChEMBL document CHEMBL1141055, “Discovery of novel conformationally restricted diazocan peptidomimetics as inhibitors of interleukin-1beta synthesis” (Bioorg Med Chem Lett, 2005):

Tests used:
Caspase-1 = target: T1, Caspase-1 (Homo sapiens, UniProt P29466); assay: Inhibition of caspase-1 using fluorogenic substrate and BMG Fluostar plate reader for 30 min at 37 degree C
T1 sequence (P29466 whole entry): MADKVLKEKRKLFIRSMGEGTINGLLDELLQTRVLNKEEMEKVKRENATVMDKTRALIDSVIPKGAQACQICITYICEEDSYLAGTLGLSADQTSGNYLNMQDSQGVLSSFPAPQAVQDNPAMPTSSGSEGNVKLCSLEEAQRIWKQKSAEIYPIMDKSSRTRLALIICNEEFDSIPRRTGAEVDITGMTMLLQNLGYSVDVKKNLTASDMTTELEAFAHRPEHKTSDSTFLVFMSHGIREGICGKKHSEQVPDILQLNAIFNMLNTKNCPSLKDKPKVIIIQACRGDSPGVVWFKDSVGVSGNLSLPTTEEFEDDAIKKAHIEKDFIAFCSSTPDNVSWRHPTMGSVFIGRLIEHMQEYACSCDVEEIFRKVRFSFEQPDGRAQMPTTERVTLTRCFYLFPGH

THP-1 = assay: Inhibition of 1 ug/mL LPS-induced IL1-beta production in human monocytic cells after 4 hrs; type: functional, cell-based; conditions: THP-1, 4 h
Caspase-8 = Caspase-8 (Homo sapiens, UniProt Q14790); assay: Inhibition of caspase 8 using fluorogenic substrate and BMG Fluostar plate reader for 30 min at 37 degree C
Caspase-3 = target: T2, Caspase-3 (Homo sapiens, UniProt P42574); assay: Inhibition of caspase 3 using fluorogenic substrate and BMG Fluostar plate reader for 30 min at 37 degree C
T2 sequence (P42574 whole entry): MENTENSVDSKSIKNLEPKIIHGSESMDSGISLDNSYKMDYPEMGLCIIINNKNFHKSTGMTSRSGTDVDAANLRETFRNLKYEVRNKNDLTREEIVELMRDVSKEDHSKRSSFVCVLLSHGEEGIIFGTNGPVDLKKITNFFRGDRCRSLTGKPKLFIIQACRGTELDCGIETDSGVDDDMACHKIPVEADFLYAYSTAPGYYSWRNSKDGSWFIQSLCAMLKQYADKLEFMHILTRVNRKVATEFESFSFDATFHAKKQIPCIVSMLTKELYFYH

Sequence of Caspase-8 (Q14790 217-374 limits assumed): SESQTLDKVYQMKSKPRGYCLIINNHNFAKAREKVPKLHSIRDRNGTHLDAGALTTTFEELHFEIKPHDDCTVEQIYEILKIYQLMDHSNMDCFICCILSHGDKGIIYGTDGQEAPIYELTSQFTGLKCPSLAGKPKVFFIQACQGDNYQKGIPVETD
Sequence of Caspase-8 (Q14790 385-479 limits assumed): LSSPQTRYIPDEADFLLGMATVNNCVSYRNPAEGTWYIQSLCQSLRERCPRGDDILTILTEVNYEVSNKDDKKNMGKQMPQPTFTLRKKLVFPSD

Row | Compound | IC50 (Caspase-1) | IC50 (THP-1) | IC50 (Caspase-8) | IC50 (Caspase-3)
1 | O=C(CN1CCCN(C(=O)N2CCNCC2)C[C@H](NC(=O)c2ccc3ccccc3c2)C1=O)N[C@H]1CC(=O)OC1O (stereo partly specified) | 24 nM | 285 nM | > 10000 nM | > 10000 nM
2 | Cc1ccc(Cl)cc1C(=O)N[C@H]1CN(C(=O)c2ccccc2)CCCN(CC(=O)N[C@H]2CC(=O)OC2O)C1=O (stereo partly specified) | – | 298 nM | – | –
3 | COc1ccccc1C(=O)N1CCCN(CC(=O)N[C@H]2CC(=O)OC2O)C(=O)[C@@H](NC(=O)c2ccc3ccccc3c2)C1 (stereo partly specified) | 38 nM | 246 nM | > 10000 nM | > 10000 nM
4 | O=C(CN1CCCN(C(=O)Cc2ccccc2)C[C@H](NC(=O)c2ccc3ccccc3c2)C1=O)N[C@H]1CC(=O)OC1O (stereo partly specified) | – | 808 nM | – | –
5 | O=C(CN1CCCN(C(=O)c2cccc(F)c2)C[C@H](NC(=O)c2ccc3ccccc3c2)C1=O)N[C@H]1CC(=O)OC1O (stereo partly specified) | 22 nM | 297 nM | > 10000 nM | > 10000 nM
6 | O=CN1CCCN(CC(=O)N[C@H]2CC(=O)OC2O)C(=O)[C@@H](NC(=O)c2ccc3ccccc3c2)C1 (stereo partly specified) | – | 219 nM | – | –
7 | CC(=O)N1CCCN(CC(=O)N[C@H]2CC(=O)OC2O)C(=O)[C@@H](NC(=O)c2ccc3ccccc3c2)C1 (stereo partly specified) | – | 216 nM | – | –
8 | COc1cccc(C(=O)N2CCCN(CC(=O)N[C@H]3CC(=O)OC3O)C(=O)[C@@H](NC(=O)c3ccc4ccccc4c3)C2)c1 (stereo partly specified) | 15 nM | 229 nM | > 10000 nM | > 10000 nM
9 | O=C(CN1CCCN(C(=O)c2ccccc2)C[C@H](NC(=O)c2cc3ccccc3s2)C1=O)N[C@H]1CC(=O)OC1O (stereo partly specified) | – | 560 nM | – | –
10 | O=C(CN1CCCN(C(=O)c2ccccc2C(F)(F)F)C[C@H](NC(=O)c2ccc3ccccc3c2)C1=O)N[C@H]1CC(=O)OC1O (stereo partly specified) | – | 1520 nM | – | –
11 | O=C(CN1CCCN(C(=O)c2ccccc2)C[C@H](NC(=O)c2nccc3ccccc23)C1=O)N[C@H]1CC(=O)OC1O (stereo partly specified) | 30 nM | 280 nM | > 10000 nM | > 10000 nM
12 | O=C(CN1CCCN(C(=O)c2cccc(C(F)(F)F)c2)C[C@H](NC(=O)c2ccc3ccccc3c2)C1=O)N[C@H]1CC(=O)OC1O (stereo partly specified) | – | 1740 nM | – | –
13 | CCO[C@@H]1OC(=O)C[C@@H]1NC(=O)[C@@H]1CCCN2C(=O)CC[C@H](NC(=O)c3nccc4ccccc34)C(=O)N12 [PRALNACASAN] | 2 nM | 120 nM | – | –
14 | O=C(CN1CCCN(C(=O)N2CCOCC2)C[C@H](NC(=O)c2ccc3ccccc3c2)C1=O)N[C@H]1CC(=O)OC1O (stereo partly specified) | 44 nM | 224 nM | > 10000 nM | > 10000 nM
15 | O=C(CN1CCCN(C(=O)c2ccccc2)C[C@H](NC(=O)c2ccccc2)C1=O)N[C@H]1CC(=O)OC1O (stereo partly specified) | – | 1020 nM | – | –
16 | Cc1ccc(Cl)cc1C(=O)N1CCCN(CC(=O)N[C@H]2CC(=O)OC2O)C(=O)[C@@H](NC(=O)c2ccc3ccccc3c2)C1 (stereo partly specified) | – | > 2500 nM | – | –
17 | O=C(CN1CCCN(C(=O)c2ccccc2)C[C@H](NC(=O)c2cccc(C(F)(F)F)c2)C1=O)N[C@H]1CC(=O)OC1O (stereo partly specified) | – | 1020 nM | – | –
18 | O=C(CN1CCCN(C(=O)C2CCCCC2)C[C@H](NC(=O)c2ccc3ccccc3c2)C1=O)N[C@H]1CC(=O)OC1O (stereo partly specified) | – | 577 nM | – | –
19 | O=C(CN1CCCN(C(=O)c2ccccc2)C[C@H](NC(=O)c2ccc3ccccc3c2)C1=O)N[C@H]1CC(=O)OC1O (stereo partly specified) | 19 nM | 205 nM | > 10000 nM | > 10000 nM
